Reference: ChEMBL document CHEMBL3124799, “Discovery of 1,3,4-oxidiazole scaffold compounds as inhibitors of superoxide dismutase expression” (Bioorg Med Chem Lett, 2014)
One block for each compound: values may come before it. The source made the active and inactive calls. The calls are words filed in the database; no cut-off is given here.

Columns and labels:
[1] = system: Fibroblast; assay: Relative expression of human SOD1 expressed in mouse fibroblasts at 10 uM after 48 hrs by ELISA
[2] = system: Fibroblast; assay: Inhibition of human SOD1 expressed in mouse fibroblasts after 48 hrs by ELISA relative to control; assay type: functional, cell-based
[3] = Drug uptake in serum of mouse expressing SOD1 G93A mutant at 10 mg/kg, ip after 4 hrs; assay type: ADME, organism-based; set-up: dose 10 mg/kg, route intraperitoneal; conditions: read-out: Drug uptake
[4] = Drug uptake in brain of mouse expressing SOD1 G93A mutant at 10 mg/kg, ip after 2 hrs; assay type: ADME, organism-based; set-up: dose 10 mg/kg, route intraperitoneal; conditions: read-out: Drug uptake
[5] = Drug uptake in spinal cord of mouse expressing SOD1 G93A mutant at 10 mg/kg, ip after 2 hrs; assay type: ADME, organism-based; set-up: dose 10 mg/kg, route intraperitoneal; conditions: read-out: Drug uptake
[6] = Drug uptake in serum of mouse expressing SOD1 G93A mutant at 10 mg/kg, ip after 2 hrs; assay type: ADME, organism-based; set-up: dose 10 mg/kg, route intraperitoneal; conditions: read-out: Drug uptake
[7] = Drug uptake in brain of nontransgenic mouse at 10 mg/kg, ip after 4 hrs
[8] = system: Brain; assay: Drug uptake in brain of nontransgenic mouse at 10 mg/kg, ip after 24 hrs; conditions: in vivo
[9] = Drug uptake in serum of nontransgenic mouse at 10 mg/kg, ip after 24 hrs
[10] = Drug uptake in spinal cord of nontransgenic mouse at 10 mg/kg, ip after 4 hrs
[11] = Drug uptake in spinal cord of nontransgenic mouse at 10 mg/kg, ip after 24 hrs
[12] = system: Fibroblast; assay: Inhibition of human SOD1 expressed in mouse fibroblasts at 10 uM after 48 hrs by ELISA relative to control; assay type: functional
[13] = system: Mus musculus; assay: Reduction in SOD1 G93A mutant expression in cerebral cortex of mouse at 20 mg/kg, ip administered every alternate day for 26 days; assay type: functional, organism-based; set-up: dose 20 mg/kg
[14] = system: Mus musculus; assay: Reduction in SOD1 G93A mutant expression in brain stem of mouse at 20 mg/kg, ip administered every alternate day for 26 days; assay type: functional, organism-based; set-up: dose 20 mg/kg
[15] = system: Mus musculus; assay: Reduction in SOD1 G93A mutant expression in cerebellum of mouse at 20 mg/kg, ip administered every alternate day for 26 days; assay type: functional, organism-based; set-up: dose 20 mg/kg
[16] = system: Mus musculus; assay: Reduction in SOD1 G93A mutant expression in spinal cord of mouse assessed as at 20 mg/kg, ip administered every alternate day for 26 days; assay type: functional, organism-based; set-up: dose 20 mg/kg
[17] = Drug uptake in serum of mouse expressing SOD1 G93A mutant at 20 mg/kg, ip after 24 hrs; assay type: ADME, organism-based; set-up: dose 20 mg/kg, route intraperitoneal; conditions: read-out: Drug uptake
[18] = Drug uptake in spinal cord of mouse expressing SOD1 G93A mutant at 20 mg/kg, ip after 24 hrs; assay type: ADME, organism-based; set-up: dose 20 mg/kg, route intraperitoneal; conditions: read-out: Drug uptake
[19] = Drug uptake in brain of mouse expressing SOD1 G93A mutant at 20 mg/kg, ip after 24 hrs; assay type: ADME, organism-based; set-up: dose 20 mg/kg, route intraperitoneal; conditions: read-out: Drug uptake
[20] = Drug uptake in serum of mouse expressing SOD1 G93A mutant at 20 mg/kg, ip after 1 hr; assay type: ADME, organism-based; set-up: dose 20 mg/kg, route intraperitoneal; conditions: read-out: Drug uptake
[21] = Drug uptake in spinal cord of mouse expressing SOD1 G93A mutant at 20 mg/kg, ip after 1 hr; assay type: ADME, organism-based; set-up: dose 20 mg/kg, route intraperitoneal; conditions: read-out: Drug uptake
[22] = Drug uptake in brain of mouse expressing SOD1 G93A mutant at 20 mg/kg, ip after 1 hr; assay type: ADME, organism-based; set-up: dose 20 mg/kg, route intraperitoneal; conditions: read-out: Drug uptake
[23] = Mus musculus, Fibroblast, 48 h, read-out: IC50

Structure (SMILES): Cc1ccc(CSc2nnc(-c3ccncc3)o2)cc1
relative SOD1 expression at 10 µM [1]: 126%

Structure (SMILES): COc1cccc(CSc2nnc(-c3ccncc3)o2)c1
inhibition [2]: Dose-dependent effect
relative SOD1 expression at 10 µM [1]: 50%

Structure (SMILES): Brc1ccc(CSc2nnc(-c3ccncc3)o2)cc1
relative SOD1 expression at 10 µM [1]: 103%

Structure (SMILES): Brc1ccc(CSc2nnc(-c3cccnc3)o2)cc1
relative SOD1 expression at 10 µM [1]: 68.6%

Structure (SMILES): O=[N+]([O-])c1cccc(CSc2nnc(-c3ccncc3)o2)c1
relative SOD1 expression at 10 µM [1]: 117%

Structure (SMILES): Fc1ccc(CSc2nnc(-c3ccncc3)o2)cc1
relative SOD1 expression at 10 µM [1]: 86%

Structure (SMILES): O=C1NC(=O)C(c2cn(CCCO)c3ncccc23)=C1c1cnccn1
IC50 [2, 23]: 10 µM

Structure (SMILES): Brc1cccc(CSc2nnc(-c3ccncc3)o2)c1
relative SOD1 expression at 10 µM [1]: 91%

Structure (SMILES): Ic1ccc(CSc2nnc(-c3ccncc3)o2)cc1
relative SOD1 expression at 10 µM [1]: 69%

Structure (SMILES): c1ccc(CSc2nnc(-c3ccncc3)o2)cc1
relative SOD1 expression at 10 µM [1]: 133%

Structure (SMILES): Clc1cccc(CSc2nnc(-c3ccncc3)o2)c1
relative SOD1 expression at 10 µM [1]: 96%

Structure (SMILES): O=C1Cc2c([nH]c3ccc(Br)cc23)-c2ccccc2N1 [KENPAULLONE]
IC50 [2, 23]: 10 µM

Structure (SMILES): CCCCc1c(-c2ccc(O)cc2)[nH]c2nccnc12 [ALOISINE A]
IC50 ([2]; fibroblast): Not Active

Structure (SMILES): Cn1cc(C2=C(c3ccc(Cl)cc3Cl)C(=O)NC2=O)c2ccccc21 [SB-216763]
IC50 [2, 23]: 3 µM

concentration at 4 h [3]: 0.334 µM
concentration at 2 h [4]: 0.029 µM
concentration at 2 h [5]: 0.057 µM
concentration at 2 h [6]: 0.153 µM
concentration at 4 h [7]: 0.047 µM
Drug uptake [8]: Not Active
concentration at 24 h [9]: 0.123 µM
concentration at 4 h [10]: 0.162 µM
concentration at 24 h [11]: 0.113 µM
Structure (SMILES): COc1ccc(CSc2nnc(-c3ccncc3)o2)cc1
inhibition [2]: Dose-dependent effect
relative SOD1 expression at 10 µM [1]: 47%

Structure (SMILES): O=C(CCl)c1cc(Br)c(Br)s1
IC50 [2, 23]: 0.65 µM

Structure (SMILES): c1cncc(CSc2nnc(-c3ccncc3)o2)c1
inhibition [12]: inactive

concentration at 24 h [17]: 0.073 µM
concentration at 24 h [18]: 0.855 µM
concentration at 24 h [19]: 0.077 µM
concentration at 1 h [20]: 0.672 µM
concentration at 1 h [21]: 4 µM
concentration at 1 h [22]: 0.944 µM
Structure (SMILES): Ic1cccc(CSc2nnc(-c3ccncc3)o2)c1
inhibition [2]: Dose-dependent effect
IC50 [2, 23]: 0.625 µM
inhibition [13]: Active
inhibition [14]: Active
inhibition [15]: Active
inhibition [16]: Active

Structure (SMILES): Clc1ccc(CSc2nnc(-c3ccncc3)o2)cc1
relative SOD1 expression at 10 µM [1]: 123%

Structure (SMILES): FC(F)(F)c1ccc(CSc2nnc(-c3ccncc3)o2)cc1
relative SOD1 expression at 10 µM [1]: 157%

Structure (SMILES): c1cc(CSc2nnc(-c3ccncc3)o2)ccn1
inhibition [12]: inactive

Structure (SMILES): O=[N+]([O-])c1ccc(CSc2nnc(-c3ccncc3)o2)cc1
relative SOD1 expression at 10 µM [1]: 102%
